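A five-concentration, 48-hour dose response in 96-well plates underlies each endpoint, interpolated linearly between surrounding concentrations. TGI: total growth inhibition.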 Bounds are passed on as bounds.

Some test systems named below: DMS 114 small cell lung; HOP-18 NSCLC; RXF-631 renal; SNB-78 CNS; XF 498 CNS; P388 leukemia; P388/ADR leukemia; SN12K1 renal; LXFL 529 NSCLC.
Common to all, as to assay: NCI tumour cell line growth inhibition, 48 h

`COc1ccc(C2C(C(=O)O)=C(COC(C)=O)Oc3cc4c(cc32)OCO4)cc1` (stereo unspecified): the TGI with DMS 114 small cell lung, in the assay with HOP-18 NSCLC, in the assay on RXF-631 renal, with SNB-78 CNS and with XF 498 CNS was over 100 µM in each case.

Take `Cc1cc(=O)c2c(O)c3c(O)cc(O)c4c5c(O)cc(O)c6c(O)c7c(=O)cc(C)c8c1c2c(c34)c(c65)c78`: the TGI was over 100 µM in the assay with HOP-18 NSCLC; 72.8 µM in the assay with P388 leukemia; over 100 µM in the assay with P388/ADR leukemia; over 100 µM in the assay with SN12K1 renal; over 77.3 µM with SNB-78 CNS; over 100 µM with XF 498 CNS.

`COCC(=O)[C@]1(O)Cc2c(O)c3c(c(O)c2[C@@H](OC2CC(N)C(O)C(C)O2)C1)C(=O)c1c(OC)cccc1C3=O` (stereo partly specified): the TGI is 0.477 µM with DMS 114 small cell lung, 2.11 µM in the assay with LXFL 529 NSCLC and 30.6 µM in the assay with SNB-78 CNS.

Consider `C[C@]12CCC(=O)C=C1CC[C@@H]1[C@@H]2C(=O)C[C@@]2(C)[C@H]1CC[C@]2(O)C(=O)CO`, for which the TGI with DMS 114 small cell lung, in the assay with HOP-18 NSCLC, with LXFL 529 NSCLC and in the assay on XF 498 CNS was over 100 µM throughout.

`CC(=O)c1ccc(NC(=O)/C(=N\NC(N)=O)C(C#N)CC(C)(C)C=O)cc1` (stereo unspecified): the TGI in the assay on DMS 114 small cell lung, with LXFL 529 NSCLC, in the assay with SNB-78 CNS and in the assay with XF 498 CNS was over 100 µM each time.

In the case of `O=C(c1ccc(Cl)cc1)N(C(=S)N1CCN(c2ccccn2)CC1)c1ccccc1`, the TGI with DMS 114 small cell lung, in the assay on HOP-18 NSCLC, with LXFL 529 NSCLC and in the assay with SNB-78 CNS was over 100 µM in each case.

The record behind these values is PubChem BioAssay (NCI).
